# Patent US20240165259A1, “BIOORTHOGONAL REACTION SUITABLE FOR CLICK/UNCLICK APPLICATIONS” (DANA-FARBER CANCER INSTITUTE, INC., priority 2021, published 2024)
# Tests used:
# [1] = Stability in PBS with or without glutathione, sodium ascorbate or HEK293T cell lysate (HPLC); assay type: physicochemical
# Experimental: The stability of both the enamine N-oxide and hydroxylamine species under a variety of biologically relevant conditions were verified at various time points (FIG. 5A-FIG. 5B). […] However, approximately 40% of the hydroxylamine had decomposed by the 24 hour time point. The primary degradation products were consistent with hydrolysis of the regioisomeric nitrones that were likely generated by autoxidation. Consequently, this degradation pathway could be abrogated by the addition of cellular reductants such as ascorbic acid (5 mM) or glutathione (5 mM) (Bobko et al., Free Radical Biol. Med. 42(3):404-412 (2007)).
# As with the hydroxylamine, the stability of enamine N-oxide 17 was evaluated by HPLC under biologically relevant conditions.
# All reactions were monitored by HPLC at 0, 1, 2, 4, 8, and 24 hour time points.
# HPLC analysis: Reactions with enamine N-oxide 17 were analyzed by HPLC (Pursuit 200 Å C18, 4.6×150 mm, 10 μm particles, 1 mL/min flow rate, eluent: isocratic 0% MeCN/H2O+0.1% TFA (1 min), gradient 0→100% MeCN/H2O+0.1% TFA (14 minutes), isocratic 100% MeCN/H2O+0.1% TFA (1 minute)) and quantified using its absorbance at 280 nm. Reactions with hydroxylamine 13 were analyzed by HPLC (Pursuit 200 Å C18, 4.6×150 mm, 10 μm particles, 1 mL/min flow rate, eluent: isocratic 0% MeCN/H2O+0.1% TFA (1 minute), gradient 0-20% MeCN/H2O+0.1% TFA (1 minute), gradient 20-50% MeCN/H2O+0.1% TFA (16 minutes), gradient 50→100% MeCN/H2O+0.1% TFA (2 minutes), isocratic 100% MeCN/H2O+0.1% TFA (1 minute)) and quantified using its absorbance at 254 nm.
# Stability in PBS: Enamine N-oxide 17 (4 μL, 15 mM in 25% v/v MeOH/PBS, pH 7.4) was added to PBS (116 μL, pH 7.4; 500 μM final concentration). Separately, hydroxylamine 13 (3 μL, 20 mM in deionized H2O) was added to PBS (117 μL, pH 7.4; 500 μM final concentration). Each solution was monitored by HPLC at each time point.
# Stability in the presence of glutathione, sodium ascorbate, and cell lysate: The reactions were conducted as described above in the Stability in PBS section except the PBS solution was first supplemented with glutathione (5 mM final concentration), sodium ascorbate (5 mM final concentration), or HEK293T cell lysate (1 mg/mL final concentration) and pH adjusted to 7.4 before adding enamine N-oxide 17 (500 μM final concentration) or hydroxylamine 13 (500 μM final concentration).
# [2] = tested on: cell surface HaloTag-GFP expressed on HEK293T cells; assay: Live cell labeling experiment (confocal microscopy); assay type: cell-based; conditions: 10 μM 21′, then 10 μM 22′ for 1 hour, fixed
# Experimental: Live cell labeling by hydroamination was explored. HEK293T cells were transiently transfected with a cell surface HaloTag-GFP construct, treated with 10 μM HaloTag linker-conjugated difluoropropargyl ether 21′, washed, and incubated with 10 μM TAMRA-conjugated hydroxylamine 22′ for 1 hour. The cells were then fixed and visualized by confocal microscopy.
# Cell Culture: HEK-293T cells were cultured in Dulbecco's Modified Eagle Medium (DMEM, Corning®) containing 10% fetal bovine serum (FBS, Sigma), 100 units/mL penicillin, and 0.1 mg/mL streptomycin (Sigma) in a humidified chamber at 37° C. with 5% CO2. Cells were passaged and dissociated with 0.25% trypsin, 0.1% EDTA in HBSS (Corning®). Cells tested negative for […] by the MycoAlert PLUS Mycoplasma Detection Kit (Lonza) following the manufacturer's protocol.
# Preparation for 12-Well Plate: Coverslips (15 mm circle, thickness 0.13-0.17 mm) were acid-washed according to the Cold Spring Harbor protocol (Fischer et al., Cold Spring Harb. Protoc. 2008:pdb.prot4988 (2008)). A coverslip was added to each well in a 12-well plate followed by an aqueous solution of poly-D-lysine (0.1 mg/mL, 30-70 kDa, 800 μL). The plate was gently shaken to distribute the solution evenly, incubated at room temperature for 1 hour, washed using 1 mL of autoclaved deionized water for each well, and dried overnight. […]
compound,measurement,setting,value
"CN(O)CCOCCNC(=O)c1ccc2c(c1)C1(OC2=O)c2ccc(N(C)C)cc2Oc2cc(N(C)C)ccc21 [compound 13, 3′,6′-bis(dimethylamino)-N-(2-(2-(hydroxy(methyl)amino)ethoxy)ethyl)-3-oxo-3H-spiro[isobenzofuran-1,9′-xanthene]-6-carboxamide]",degradation in cell lysate,"[1]; HEK293T cell lysate (1 mg/mL), 24 hours, no exogenous reductants",no degradation above background
same,degradation in the presence of cellular reductants,"[1]; PBS with ascorbic acid (5 mM) or glutathione (5 mM), 24 hours",Negligible degradation
same,hydroxylamine decomposed,"[1]; PBS, room temperature, 24 hour time point",approximately 40%
same,compound intact,"[1]; PBS, room temperature, up to 8 hours, HPLC",> 86%
same,live cell labeling (TAMRA signal),[2],localized at the cell surface and co-localized with the GFP signal of transfected cells
